pKi: −log10 of the molar value.
target: T1, rat EP4 receptor (Rattus norvegicus, UniProt P43114); test: Evaluation test on rat EP4 receptor affinity ([3H]PGE2 binding assay); conditions: [3H]PGE2 0.3 nM; membrane fraction of HEK293 cells expressing rat EP4; room temperature, 1 hour
T1 construct: expressed in transfected cells; host or cells: HEK293
Protocol: Evaluation Test on Rat EP4 Receptor Affinity
Cell Culture and Transfection
Using a 10 cm collagen-coated dish (Asahi Glass), HEK293 cells were cultured in a D-MEM culture medium, the culture medium was removed at a confluence (90 to 100% density state) and washed with a phosphate-buffered saline (PBS), and then the cells were detached with N,N,N′,N′-tetrakis(carboxymethyl)ethylenediamine (EDTA). The number of the cells were counted and seeded on a 15 cm collagen-coated dish to a confluence of 70%. The next day, to an Opti-MEM culture medium at 1.2 mL/dish was added Lipofectamine 2000 (Invitrogen) at 60 μL/dish, followed by being left to stand at room temperature for 5 minutes. A plasmid in which a rat EP4 (sequence number 1) had been inserted into a TA cloning site of pcDNA3.1-V5-His-topo was added thereto at 15 μg/dish. After leaving it to stand at room temperature for 30 minutes, the resultant was added to the dish and cultured for 20 to 24 hours. The cell culture was carried out in a CO2 incubator (37° C., 5% CO2).
Preparation of Membrane Fraction
The culture medium was removed by suction, 10 mL of cooled PBS was added thereto per 15 cm dish, and the cells were scraped using a cell scraper (Sumitomo Bakelite). After washing with cooled PBS (1,200 rpm, 4° C., 5 min), and then suspended in 6 mL of cooled 20 mM Tris-HCl (pH 7.4; Nakalai Tesque Inc., including 5 mM EDTA (Nakalai Tesque Inc.) per dish and homogenized using a Polytron, the homogenate was centrifuged (26,000 rpm, 20 min, 4° C.). The obtained precipitate was resuspended in cooled 20 mM Tris-HCl and homogenized again using a Polytron, and the homogenate was centrifuged (26,000 rpm, 20 min, 4° C.). The obtained precipitate was resuspended in 50 mM HEPES (pH 7.5; Dojindo Laboratories) to 1 mL per dish, homogenized using a Polytron, and freeze-stored at −80° C. as a membrane fraction. At this time, a part thereof was used for the measurement of the protein concentration. Measurement of the protein concentration was carried out using a Bio-Rad Protein assay kit (Bio-Rad Laboratories) in accordance with the appended standard Protocol in duplicate.
[^3H] PGE2 μL (final concentration 0.3 nM; Perkin Elmer), 100 μL (20 μg/well) of a membrane fraction prepared from the rat EP4 expression cell and 50 μL of a test compound were mixed in a 96-well microplate (Sumitomo Bakelite), incubated at room temperature for 1 hour, filtered by suction on a UniFilter-96 GF/B (Perkin Elmer) using a FilterMate Harvester (Perkin Elmer), and then washed three times with 300 μL/well of a cooled assay buffer. Dilution of [^3H]PGE2 and the membrane fraction was carried out using an assay buffer (50 mM HEPES, 10 mM MgCl2), and dilution of the test compound and the unlabeled PGE2 was carried out using DMSO and the assay buffer. Further, in the case a human serum albumin (HSA) is added, dilution was carried out using an assay buffer containing 4% HSA (final concentration 1%; Sigma). The UniFilter-96 GF/B was treated by preliminarily washing twice with 200 μL/well of a cooled assay buffer. The UniFilter-96 GF/B after filtration was dried in a dryer overnight, 50 μL/well of MicroScint20 (Perkin Elmer) was added thereto, and then the radioactivity was measured using a TopCount (Perkin Elmer). For measurement of the non-specific binding, an unlabeled PGE2 (final concentration 1 μM; Cayman) was added. All of the measurements were carried out in duplicate, and the specific binding amount was determined by subtracting the non-specific binding amount from the total binding amount.
According to Test method as above, the rat EP4 receptor affinity (Ki) of the compound of the formula (I) was measured. Ex represents Example Compound number.

T1 sequence (P43114 whole entry): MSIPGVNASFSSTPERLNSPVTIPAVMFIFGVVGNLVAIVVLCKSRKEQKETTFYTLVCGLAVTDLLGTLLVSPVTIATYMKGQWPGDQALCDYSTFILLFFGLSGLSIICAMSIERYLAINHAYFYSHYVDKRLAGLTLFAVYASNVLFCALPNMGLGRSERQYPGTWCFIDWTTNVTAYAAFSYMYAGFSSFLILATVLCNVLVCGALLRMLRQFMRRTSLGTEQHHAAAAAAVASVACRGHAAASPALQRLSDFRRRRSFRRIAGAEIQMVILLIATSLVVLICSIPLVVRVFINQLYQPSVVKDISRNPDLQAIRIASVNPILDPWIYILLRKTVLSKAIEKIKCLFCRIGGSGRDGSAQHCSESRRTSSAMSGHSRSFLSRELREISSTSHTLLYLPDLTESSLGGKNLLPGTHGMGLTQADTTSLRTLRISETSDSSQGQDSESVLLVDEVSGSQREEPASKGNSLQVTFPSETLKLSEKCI

Row | pKi | Compound
1 | 8.26 | C[C@H](NC(=O)c1cccc2cnn(Cc3ccc(Cl)cc3)c12)c1ccc(C(=O)O)cc1 [Example 47]
2 | 9.10 | C[C@H](NC(=O)c1cccc2c1N(Cc1ccc(Cl)cc1)CC2)c1ccc(C(=O)O)cc1 [Example 22]
3 | 8.80 | C[C@H](NC(=O)c1cccc2ccn(Cc3ccc4ccccc4n3)c12)c1ccc(C(=O)O)cc1 [Example 57]
4 | 7.80 | C[C@H](NC(=O)c1sccc1N(C)Cc1ccc(Cl)cc1)c1ccc(C(=O)O)cc1 [Example 7]
5 | 9.10 | CN(NC(=O)c1cccc2ccn(Cc3ccc(Cl)cc3)c12)c1ccc(C(=O)O)cc1 [Example 8]
6 | 9.29 | C[C@H](NC(=O)c1cc(Cl)cc2ccn(Cc3ccc(Cl)cc3)c12)c1ccc(C(=O)O)cc1 [Example 21]
7 | 7.43 | C[C@H](NC(=O)c1cccn1Cc1ccc(Cl)cc1)c1ccc(C(=O)O)cc1 [Example 39]
8 | 7.82 | C[C@H](NC(=O)c1ccccc1-n1ccc2cc(Cl)ccc21)c1ccc(C(=O)O)cc1 [Example 50]
9 | 7.92 | O=C(NCC1CCC(C(=O)O)CC1)c1cccc2ccn(Cc3ccc(Cl)cc3)c12 (stereo not shown) [Example 110]
10 | 8.00 | C[C@H](NC(=O)c1cc2ccccc2n1Cc1ccc(Cl)cc1)c1ccc(C(=O)O)cc1 [Example 37]
11 | 7.92 | CC(NC(=O)c1cccc2ccn(Cc3ccc(Cl)cc3)c12)[C@H]1CC[C@H](C(=O)O)CC1 (stereo partly shown) [Example 61]
12 | 9.08 | CN(NC(=O)c1cc(Cl)cc2ccn(Cc3ccc(Cl)cc3)c12)c1ccc(C(=O)O)cc1 [Example 31]
13 | 8.12 | O=C(O)c1ccc2c(ccn2NC(=O)c2ccccc2Cc2ccc(Cl)cc2)c1 [Example 4, 1-{[2-(4-chlorobenzyl)benzoyl]amino}-1H-indole-5-carboxylic acid]
14 | 8.46 | C[C@H](NC(=O)c1cccc2ccn(Cc3ccc(Cl)cc3)c12)c1ccc(-c2noc(=O)[nH]2)cc1 [Example 15]
15 | 8.59 | O=C(O)c1ccc(CNC(=O)c2cccc3ccn(Cc4ccc(Cl)cc4)c23)cc1 [Example 111]
16 | 7.96 | C[C@H](NC(=O)c1cccc2nc(Nc3ccc(Cl)cc3)oc12)c1ccc(C(=O)O)cc1 [Example 46]
